Legend:
[1] = target: S. agalactiae (SaGUS) β-Glucuronidase (Streptococcus agalactiae serotype V, UniProt Q8E0N2); assay: biochemical
[2] = target: C. perfringens (CpGUS) β-Glucuronidase (Clostridium perfringens, UniProt Q8XP19); assay: biochemical
[3] = target: E. coli (EcGUS) β-Glucuronidase (Escherichia coli, UniProt P05804); assay: In vitro GUS inhibition, PNPG cleavage by purified E. coli GUS; format: biochemical; conditions: PNPG substrate, 37° C., 2 hours; NI = no inhibition
Protocol: To assess GUS inhibition, cleavage of p-nitrophenyl-β-D-glucuronide (PNPG) by purified E. coli GUS in the presence of inhibitor was measured. The reaction was performed in 96-well clear-bottom plates at a volume of 50 μL. Each reaction contained 5 μL of 100 nM E. coli GUS, 5 μL of inhibitor at various concentrations, 10 μL of 250 mM HEPES and 250 mM NaCl assay buffer, and 30 μL of 1.5 mM PNPG. The reaction was initiated by addition of PNPG and incubated at 37° C. for 2 hours. End point absorbance values at 410 nm were measured using a PHERAstar Plus microplate reader. The resulting data were fit with a four-parameter logistic log function in SigmaPlot 13.0 to determine IC50 values. IC50 was defined as the concentration of inhibitor that yields a 50% reduction in product formation at equilibrium.

Sequence of C. perfringens (CpGUS) β-Glucuronidase (Q8XP19 whole entry, looked up): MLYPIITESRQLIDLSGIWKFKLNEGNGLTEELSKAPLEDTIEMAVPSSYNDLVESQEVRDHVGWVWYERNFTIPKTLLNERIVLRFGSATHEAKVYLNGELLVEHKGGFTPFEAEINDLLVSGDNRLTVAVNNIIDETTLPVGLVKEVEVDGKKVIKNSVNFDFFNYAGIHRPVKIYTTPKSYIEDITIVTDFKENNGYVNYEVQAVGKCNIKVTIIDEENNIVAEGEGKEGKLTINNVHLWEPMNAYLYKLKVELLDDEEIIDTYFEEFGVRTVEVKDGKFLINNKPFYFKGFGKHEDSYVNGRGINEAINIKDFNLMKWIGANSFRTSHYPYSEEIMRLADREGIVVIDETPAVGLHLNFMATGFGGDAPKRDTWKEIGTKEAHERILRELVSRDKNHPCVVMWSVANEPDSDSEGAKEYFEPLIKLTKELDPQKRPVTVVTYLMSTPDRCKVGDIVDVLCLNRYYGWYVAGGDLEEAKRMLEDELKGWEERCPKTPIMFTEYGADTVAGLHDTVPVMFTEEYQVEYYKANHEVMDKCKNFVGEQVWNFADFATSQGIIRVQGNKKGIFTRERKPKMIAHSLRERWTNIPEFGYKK
Sequence of E. coli (EcGUS) β-Glucuronidase (P05804 whole entry): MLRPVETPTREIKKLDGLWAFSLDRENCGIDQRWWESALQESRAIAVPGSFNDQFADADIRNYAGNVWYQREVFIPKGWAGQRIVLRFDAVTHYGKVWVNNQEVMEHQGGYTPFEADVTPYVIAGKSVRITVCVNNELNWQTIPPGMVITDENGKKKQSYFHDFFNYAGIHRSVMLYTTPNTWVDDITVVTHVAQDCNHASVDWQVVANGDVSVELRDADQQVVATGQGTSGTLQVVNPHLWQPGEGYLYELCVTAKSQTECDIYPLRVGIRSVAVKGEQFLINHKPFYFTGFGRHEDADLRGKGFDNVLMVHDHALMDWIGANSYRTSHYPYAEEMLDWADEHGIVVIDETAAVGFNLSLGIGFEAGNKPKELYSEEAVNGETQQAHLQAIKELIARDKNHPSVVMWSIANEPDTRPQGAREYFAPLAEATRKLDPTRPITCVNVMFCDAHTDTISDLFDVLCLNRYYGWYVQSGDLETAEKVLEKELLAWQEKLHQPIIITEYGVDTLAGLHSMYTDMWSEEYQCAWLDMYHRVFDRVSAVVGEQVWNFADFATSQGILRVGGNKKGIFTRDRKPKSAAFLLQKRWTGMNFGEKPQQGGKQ
Sequence of S. agalactiae (SaGUS) β-Glucuronidase (Q8E0N2 whole entry): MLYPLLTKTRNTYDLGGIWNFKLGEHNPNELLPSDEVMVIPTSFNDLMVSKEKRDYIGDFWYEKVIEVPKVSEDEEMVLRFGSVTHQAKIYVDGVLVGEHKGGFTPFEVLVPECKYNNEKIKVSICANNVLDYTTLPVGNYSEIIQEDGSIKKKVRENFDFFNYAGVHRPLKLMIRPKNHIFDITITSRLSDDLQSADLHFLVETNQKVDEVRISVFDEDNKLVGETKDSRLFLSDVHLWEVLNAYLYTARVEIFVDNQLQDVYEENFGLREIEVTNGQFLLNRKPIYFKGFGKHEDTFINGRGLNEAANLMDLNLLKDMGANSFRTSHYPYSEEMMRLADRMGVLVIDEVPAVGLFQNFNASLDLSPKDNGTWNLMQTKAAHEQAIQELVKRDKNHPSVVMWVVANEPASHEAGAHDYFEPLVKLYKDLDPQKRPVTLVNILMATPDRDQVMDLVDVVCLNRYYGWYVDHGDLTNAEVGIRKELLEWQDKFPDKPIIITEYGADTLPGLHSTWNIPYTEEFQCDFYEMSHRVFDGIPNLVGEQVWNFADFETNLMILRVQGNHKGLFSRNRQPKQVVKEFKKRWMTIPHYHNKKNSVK

Row | Structure (SMILES) | IC50 [1] | IC50 [2] | IC50 [3]
1 | CN1CCN(c2nnnc3c2sc2nc(N4CCOCC4)c4c(c23)CCCC4)CC1 [Compound 2] | 22000 ± 7000 nM | 14300 ± 300 nM | –
2 | NN1CCN(c2nnnc3c2sc2nc(N4CCOCC4)c4c(c23)CCCC4)CC1 [Compound 3] | 6700 ± 400 nM | 4500 ± 200 nM | 5000 ± 500 nM
3 | C1CCc2c(c(N3CCOCC3)nc3sc4c(NC5CCNCC5)nnnc4c23)C1 [Compound 4] | 70000 ± 20000 nM | 5700 ± 600 nM | –
4 | C1CCc2c(c(N3CCOCC3)nc3sc4c(N5CC6CC5CN6)nnnc4c23)C1 (stereo not drawn) [Compound 5] | 2700 ± 500 nM | 4500 ± 300 nM | –
5 | C[C@@H]1CN(c2nnnc3c2sc2nc(N4CCOCC4)c4c(c23)CCCC4)CCN1 [Compound 6] | 550 ± 70 nM | 3900 ± 100 nM | –
6 | C[C@H]1CN(c2nnnc3c2sc2nc(N4CCOCC4)c4c(c23)CCCC4)CCN1 [Compound 7] | 550 ± 60 nM | 4200 ± 300 nM | –
7 | C1CCc2c(c(N3CCOCC3)nc3sc4c(N5CCCNCC5)nnnc4c23)C1 [Compound 8] | 5000 ± 1000 nM | 13700 ± 600 nM | –
8 | C1CCc2c(c(N3CCNCC3)nc3sc4c(N5CCNCC5)nnnc4c23)C1 [Compound 12] | 63 ± 6 nM | 120 ± 20 nM | –
9 | C1CCN(c2nc3sc4c(N5CCNCC5)nnnc4c3c3c2CCCC3)CC1 [Compound 13] | 180 ± 20 nM | 350 ± 20 nM | –
10 | C1CCC(Nc2nc3sc4c(N5CCNCC5)nnnc4c3c3c2CCCC3)CC1 [Compound 14] | 320 ± 50 nM | 480 ± 10 nM | –
11 | CN(C)c1nc2sc3c(N4CCNCC4)nnnc3c2c2c1CCCC2 [Compound 15] | 62 ± 5 nM | 180 ± 6 nM | –
12 | CNc1nc2sc3c(N4CCNCC4)nnnc3c2c2c1CCCC2 [Compound 16] | 39 ± 8 nM | 180 ± 10 nM | 70 ± 10 nM
13 | c1ccc(CNc2nc3sc4c(N5CCNCC5)nnnc4c3c3c2CCCC3)cc1 [Compound 17] | 90 ± 20 nM | 290 ± 10 nM | –
14 | c1cc2c(nc1N1CCOCC1)sc1c(N3CCNCC3)nnnc12 [Compound 19] | 640 ± 60 nM | 220 ± 20 nM | –
15 | c1nc(N2CCNCC2)c2sc3nc(N4CCOCC4)ccc3c2n1 [Compound 20] | 690 ± 30 nM | 53 ± 4 nM | 130 ± 10 nM
16 | CNc1nc(N2CCNCC2)c2sc3nc(N4CCOCC4)ccc3c2n1 [Compound 21] | 340 ± 50 nM | 100 ± 10 nM | –
17 | c1ccc(-c2ccc3c(n2)sc2c(N4CCNCC4)nnnc23)cc1 [Compound 22] | 700 ± 100 nM | 230 ± 30 nM | –
18 | c1ccc(-c2ccc3c(n2)sc2c(N4CCNCC4)ncnc23)cc1 [Compound 23] | 550 ± 70 nM | 440 ± 40 nM | –

Row | Structure (SMILES) | IC50 [1] | IC50 [2] | IC50 [3]
19 | CNc1nc(N2CCNCC2)c2sc3nc(-c4ccccc4)ccc3c2n1 [Compound 24] | 480 ± 30 nM | 450 ± 10 nM | –
20 | CN(C)c1nc(N2CCNCC2)c2sc3nc(-c4ccccc4)ccc3c2n1 [Compound 25] | 270 ± 30 nM | 160 ± 20 nM | –
21 | OCCNc1nc(N2CCNCC2)c2sc3nc(-c4ccccc4)ccc3c2n1 [Compound 26] | 490 ± 60 nM | 410 ± 40 nM | –
22 | CN(C)c1ccc2c(n1)sc1c(N3CCNCC3)nnnc12 [Compound 27] | 1000 ± 200 nM | 220 ± 20 nM | –
23 | CNc1nc(N2CCNCC2)c2sc3nc(N(C)C)ccc3c2n1 [Compound 28] | 500 ± 200 nM | 280 ± 50 nM | –
24 | CNc1ccc2c(n1)sc1c(N3CCNCC3)nc(NC)nc12 [Compound 29] | 550 ± 70 nM | 660 ± 90 nM | –
25 | c1cnc2sc3c(N4CCNCC4)ncnc3c2c1 [Compound 30] | 3000 ± 2000 nM | 577 ± 9 nM | –
26 | CNc1nc(N2CCNCC2)c2sc3ncccc3c2n1 [Compound 31] | 2000 ± 1500 nM | 900 ± 300 nM | –
27 | CC1CN(c2nnnc3c2sc2nc(N4CCOCC4)c4c(c23)CCCC4)CCN1 (stereo not drawn) [Compound 44] | – | – | 5400 ± 600 nM
28 | COc1nc(N2CCNCC2)c2sc3nc(-c4ccccc4)ccc3c2n1 [Compound 45] | – | – | 140 ± 8 nM
29 | c1cnc2sc3c(N4CCNCC4)nnnc3c2c1 [Compound 46] | – | – | 1400 ± 40 nM
30 | Clc1nc(N2CCNCC2)c2sc3nc(N4CCOCC4)ccc3c2n1 [Compound 47] | – | – | 30 ± 3 nM
31 | Fc1ccc(CNc2nc3sc4c(N5CCNCC5)nnnc4c3c3c2CCCC3)cc1 [Compound 48] | – | – | 208 ± 3 nM
32 | CC1(C)CCc2c(N3CCOCC3)nc3sc4c(N5CCNCC5)nnnc4c3c2C1 [Compound 49] | – | – | 620 ± 50 nM
33 | CN(C)c1nc2sc3c(NCCN)nnnc3c2c2c1CCCC2 [Compound 50] | – | – | 12000 ± 2000 nM
34 | Clc1nc(N2CCNCC2)c2sc3nc(N4CCOCC4)c4c(c3c2n1)CCCC4 [Compound 51] | – | – | 900 ± 60 nM
35 | C[N+]1(C)CCN(c2nnnc3c2sc2nc(N4CCOCC4)c4c(c23)CCCC4)CC1 [Compound 52] | – | – | 6000 ± 100 nM
36 | C1CCc2c(c(N3CCOCC3)nc3sc4c(N5CCNCC5)nnnc4c23)C1 [Inh9, reference compound] | 117 nM | 154 nM | –

— US11339178B2, “Inhibitors of microbial beta-glucuronidase enzymes and uses thereof” (The University of North Carolina at Chapel Hill, priority 2016, dated 2022)
